{"source": "patent US20240287138A1", "about": "“CYCLIC PEPTIDES FOR INHIBITING TNF RECEPTOR 1 ACTIVITY” (Merck Sharp & Dohme LLC, priority 2023, published 2024)", "key": {"[1]": {"molecular_target": "T1, TNFα-induced NF-κB signal transduction pathway (TNFR1 signaling) in THP-1 cells (Homo sapiens, UniProt P19438)", "T1 sequence (P19438 30-455)": "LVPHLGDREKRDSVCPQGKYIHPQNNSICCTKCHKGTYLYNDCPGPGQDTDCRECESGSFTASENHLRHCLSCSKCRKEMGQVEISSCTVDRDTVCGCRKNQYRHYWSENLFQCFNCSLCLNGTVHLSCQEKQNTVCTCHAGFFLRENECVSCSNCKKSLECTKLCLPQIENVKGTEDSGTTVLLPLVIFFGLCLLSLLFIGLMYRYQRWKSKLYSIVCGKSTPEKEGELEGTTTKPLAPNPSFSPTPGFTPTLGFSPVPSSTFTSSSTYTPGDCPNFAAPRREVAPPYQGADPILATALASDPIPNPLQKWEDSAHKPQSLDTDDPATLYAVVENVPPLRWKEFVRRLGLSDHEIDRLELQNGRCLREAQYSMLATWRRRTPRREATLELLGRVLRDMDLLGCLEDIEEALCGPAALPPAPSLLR", "assay": "THP-1 Lucia NF-κB reporter cell assay, inhibition of TNFα-induced NF-κB signaling", "format": "cell-based", "conditions": "THP-1 NF-κB Lucia reporter cells, 10 ng/mL TNFα, 16-18 h, secreted luciferase; read-out: THP-1 IC50", "how_it_was_run": "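Macrocyclic peptides were preincubated 1 h at 37 °C with THP-1 NF-κB-Lucia reporter cells (20,000 cells/well) in antibiotic-free RPMI 1640/10% FBS, then stimulated with 10 ng/mL human TNFα overnight (16-18 h). Secreted luciferase in supernatant was read by luminescence; IC50 from 4-parameter logistic fits.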"}, "[2]": {"molecular_target": "T2, human TNFR1 extracellular domain (ECD) protein (Homo sapiens, UniProt P19438)", "T2 construct": "HRV 3C protease cleavage site (C); 6His (C, cleaved yes); made in house; host or cells: Sf21 insect cells (baculovirus), secreted", "T2 sequence (P19438 30-211)": "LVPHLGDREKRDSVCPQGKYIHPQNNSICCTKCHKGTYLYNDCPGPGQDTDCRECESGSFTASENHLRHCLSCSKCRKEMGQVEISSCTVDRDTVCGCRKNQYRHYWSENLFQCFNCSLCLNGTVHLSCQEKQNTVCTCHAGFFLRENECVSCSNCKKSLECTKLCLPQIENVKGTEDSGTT", "assay": "SPR binding affinity to captured human TNFR1 ECD", "how_it_was_run": "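SPR kinetics: peptides over captured avi-biotinylated receptor ECDs, TNFR1 for affinity, TNFR2 run in parallel for off-target binding. Running buffer HEPES pH 7.4 with 150 mM NaCl, 3 mM EDTA, 0.05% P20, 2% DMSO; surface regenerated between analytes. Affinity derived from kon/koff.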"}}, "note": "Numbered stars: 1 amine (or outer) side, 2 acyl side, 3 side chain; on linkers, the order of the positions; unused ones are H or OH. Bridge positions count the residues as written; N and C are the ends. Square brackets hold non-standard residues; d marks the D form. Peptide text beside a SMILES is read from it. Trp(βS-Me,7-OMe) = COc1cccc2c([C@H](C)[C@H](N)C(=O)O)c[nH]c12; Phe(3R-OH) = O=C([C@@H](N[*:1])[C@H](O[*:3])c1ccccc1)[*:2]; Trp(7-Cl) = N[C@@H](Cc1c[nH]c2c(Cl)cccc12)C(=O)O; Phe(4-CONH2) = NC(=O)c1ccc(C[C@H](N)C(=O)O)cc1; Phe(4-COOH) = N[C@@H](Cc1ccc(C(=O)O)cc1)C(=O)O; Trp(7-F) = N[C@@H](Cc1c[nH]c2c(F)cccc12)C(=O)O; Trp(7-aza) = N[C@@H](Cc1c[nH]c2ncccc12)C(=O)O; Ala(4-thiazolyl) = N[C@@H](Cc1cscn1)C(=O)O; Pip(5R-OH) = O=C(O)[C@@H]1CC[C@@H](O)CN1; X13 = O=C([C@H]1CC[C@@H](N[*:1])C1)[*:2]; X1 = O=C([C@@H]1CC[C@H](N[*:1])C1)[*:2]; dPro(4,4-F2) = O=C(O)[C@H]1CC(F)(F)CN1; d(cisHyp) = O=C(O)[C@H]1C[C@@H](O)CN1; Pip(4-aza) = O=C(O)[C@@H]1CNCCN1; hPhe = N[C@@H](CCc1ccccc1)C(=O)O; 4Pal = N[C@@H](Cc1ccncc1)C(=O)O; NMeE = CN[C@@H](CCC(=O)O)C(=O)O; Cit = NC(=O)NCCC[C@H](N)C(=O)O; αMeS = C[C@](N)(CO)C(=O)O; NMeA = CN[C@@H](C)C(=O)O; Nle = CCCC[C@H](N)C(=O)O; Sar = CNCC(=O)O"}
{"smiles": "CCCC[C@@H]1NC(=O)CSC[C@@H](C(N)=O)NC(=O)[C@H]([C@@H](C)c2c[nH]c3c(OC)cccc23)NC(=O)CN(C)C(=O)[C@H](Cc2ccc(O)cc2)NC(=O)[C@H](Cc2ccc(C(=O)O)cc2)NC(=O)[C@](C)(CO)NC(=O)[C@H](Cc2c[nH]c3c(Cl)cccc23)NC(=O)[C@H](Cc2ccncc2)NC(=O)[C@H](CC(N)=O)NC(=O)[C@H](CCC(=O)O)N(C)C(=O)[C@H](Cc2c[nH]c3ncccc23)NC(=O)[C@H](Cc2cscn2)NC(=O)[C@H](Cc2ccncc2)NC1=O", "note": "[SEQ ID NO. 253] ({CH2CO}-[Nle][4Pal][Ala(4-thiazolyl)][Trp(7-aza)][NMeE]N[4Pal][Trp(7-Cl)][αMeS][Phe(4-COOH)]Y[Sar][Trp(βS-Me,7-OMe)]C-NH2; thioether N-14)", "values": [{"measurement": "IC50", "setting": "[1]", "value": 4.4, "unit": "nM"}, {"measurement": "Kd", "setting": "[2]", "value": 1.09, "unit": "nM"}]}
{"smiles": "CN1CC(=O)N[C@@H](Cc2c[nH]c3ccccc23)C(=O)N[C@H](C(N)=O)CSCC(=O)N[C@@H](CCCCN)C(=O)N[C@@H](Cc2ccc(O)cc2)C(=O)N[C@@H](CO)C(=O)N[C@@H](Cc2c[nH]c3ccccc23)C(=O)N2CCC[C@@H]2C(=O)N[C@@H](CCCNC(N)=O)C(=O)N[C@@H](Cc2ccncc2)C(=O)N[C@@H](Cc2c[nH]c3ccccc23)C(=O)N[C@@](C)(CO)C(=O)N[C@@H](Cc2ccc(C(=O)O)cc2)C(=O)N[C@@H](Cc2ccc(O)cc2)C1=O", "note": "[SEQ ID NO. 256] ({CH2CO}-KYSW[dP][Cit][4Pal]W[αMeS][Phe(4-COOH)]Y[Sar]WC-NH2; thioether N-14)", "values": [{"measurement": "IC50", "setting": "[1]", "value": 6.1, "unit": "nM"}, {"measurement": "Kd", "setting": "[2]", "value": 1.4, "unit": "nM"}]}
{"smiles": "CCCC[C@@H]1NC(=O)CSC[C@@H](C(N)=O)NC(=O)[C@H]([C@@H](C)c2c[nH]c3c(OC)cccc23)NC(=O)CN(C)C(=O)[C@H](Cc2ccc(O)cc2)NC(=O)[C@H](Cc2ccc(C(=O)O)cc2)NC(=O)[C@](C)(CO)NC(=O)[C@H](Cc2c[nH]c3c(Cl)cccc23)NC(=O)[C@H](Cc2ccncc2)NC(=O)[C@H](CC(N)=O)NC(=O)[C@H](CCC(=O)O)N(C)C(=O)[C@H](Cc2c[nH]c3ncccc23)NC(=O)[C@H](CO)NC(=O)[C@H]([C@H](O)c2ccccc2)NC1=O", "note": "[SEQ ID NO. 259] ({CH2CO}-[Nle][Phe(3R-OH)]S[Trp(7-aza)][NMeE]N[4Pal][Trp(7-Cl)][αMeS][Phe(4-COOH)]Y[Sar][Trp(βS-Me,7-OMe)]C-NH2; thioether N-14)", "values": [{"measurement": "IC50", "setting": "[1]", "value": 1.9, "unit": "nM"}, {"measurement": "Kd", "setting": "[2]", "value": 0.15, "unit": "nM"}]}
{"smiles": "C[C@H]1C(=O)N[C@@H](CC(N)=O)C(=O)N[C@@H](Cc2ccncc2)C(=O)N[C@@H](Cc2c[nH]c3ccccc23)C(=O)N[C@@](C)(CO)C(=O)N[C@@H](Cc2ccc(C(=O)O)cc2)C(=O)N[C@@H](CCCNC(=N)N)C(=O)N(C)CC(=O)N[C@@H](Cc2c[nH]c3ccccc23)C(=O)N[C@H](C(N)=O)CSCC(=O)N[C@@H](CCc2ccccc2)C(=O)N[C@@H](Cc2ccc(O)cc2)C(=O)N[C@@H](CO)C(=O)N[C@@H](Cc2c[nH]c3ccccc23)C(=O)N1C", "note": "[SEQ ID NO. 260] ({CH2CO}-[hPhe]YSW[NMeA]N[4Pal]W[αMeS][Phe(4-COOH)]R[Sar]WC-NH2; thioether N-14)", "values": [{"measurement": "IC50", "setting": "[1]", "value": 50.1, "unit": "nM"}, {"measurement": "Kd", "setting": "[2]", "value": 6, "unit": "nM"}]}
{"smiles": "CCCC[C@@H]1NC(=O)CSC[C@@H](C(N)=O)NC(=O)[C@H]([C@@H](C)c2c[nH]c3c(OC)cccc23)NC(=O)CN(C)C(=O)[C@H](Cc2ccc(O)cc2)NC(=O)[C@H](Cc2ccc(C(=O)O)cc2)NC(=O)[C@](C)(CO)NC(=O)[C@H](Cc2c[nH]c3c(Cl)cccc23)NC(=O)[C@H](Cc2ccncc2)NC(=O)[C@H](CC(N)=O)NC(=O)[C@H]2C[C@@H](O)CN2C(=O)[C@H](Cc2c[nH]c3ncccc23)NC(=O)[C@@H]2CNCCN2C(=O)[C@H](Cc2ccncc2)NC1=O", "note": "[SEQ ID NO. 261] ({CH2CO}-[Nle][4Pal][Pip(4-aza)][Trp(7-aza)][d(cisHyp)]N[4Pal][Trp(7-Cl)][αMeS][Phe(4-COOH)]Y[Sar][Trp(βS-Me,7-OMe)]C-NH2; thioether N-14)", "values": [{"measurement": "IC50", "setting": "[1]", "value": 2.7, "unit": "nM"}, {"measurement": "Kd", "setting": "[2]", "value": 0.2, "unit": "nM"}]}
{"smiles": "CCCC[C@@H]1NC(=O)[C@@H]2CC[C@@H](C2)NC(=O)[C@H]([C@@H](C)c2c[nH]c3c(OC)cccc23)NC(=O)CN(C)C(=O)[C@H](Cc2ccc(O)cc2)NC(=O)[C@H](Cc2ccc(C(=O)O)cc2)NC(=O)[C@](C)(CO)NC(=O)[C@H](Cc2c[nH]c3c(Cl)cccc23)NC(=O)[C@H](Cc2ccncc2)NC(=O)[C@H](CC(N)=O)NC(=O)[C@H](CCC(=O)O)N(C)C(=O)[C@H](Cc2c[nH]c3c(Cl)cccc23)NC(=O)[C@@H]2CNCCN2C(=O)[C@H](Cc2ccncc2)NC1=O", "note": "[SEQ ID NO. 262] (cyclo([4Pal][Trp(7-Cl)][αMeS][Phe(4-COOH)]Y[Sar][Trp(βS-Me,7-OMe)][X1][Nle][4Pal][Pip(4-aza)][Trp(7-Cl)][NMeE]N))", "values": [{"measurement": "IC50", "setting": "[1]", "value": 1.2, "unit": "nM"}, {"measurement": "Kd", "setting": "[2]", "value": 0.24, "unit": "nM"}]}
{"smiles": "C[C@H]1C(=O)N[C@@H](CC(N)=O)C(=O)N[C@@H](Cc2ccncc2)C(=O)N[C@@H](Cc2c[nH]c3ccccc23)C(=O)N[C@@](C)(CO)C(=O)N[C@@H](Cc2ccc(C(=O)O)cc2)C(=O)N[C@@H](Cc2ccc(O)cc2)C(=O)N(C)CC(=O)N[C@@H](Cc2c[nH]c3ccccc23)C(=O)N[C@H](C(N)=O)CSCC(=O)N[C@@H](CCc2ccccc2)C(=O)N[C@@H](Cc2ccc(O)cc2)C(=O)N[C@@H](CO)C(=O)N[C@@H](Cc2c[nH]c3c(F)cccc23)C(=O)N1C", "note": "[SEQ ID NO. 263] ({CH2CO}-[hPhe]YS[Trp(7-F)][NMeA]N[4Pal]W[αMeS][Phe(4-COOH)]Y[Sar]WC-NH2; thioether N-14)", "values": [{"measurement": "IC50", "setting": "[1]", "value": 4.7, "unit": "nM"}, {"measurement": "Kd", "setting": "[2]", "value": 1.6, "unit": "nM"}]}
{"smiles": "CCCC[C@@H]1NC(=O)[C@@H]2CC[C@@H](C2)NC(=O)[C@H]([C@@H](C)c2c[nH]c3c(OC)cccc23)NC(=O)CN(C)C(=O)[C@H](Cc2ccc(O)cc2)NC(=O)[C@H](Cc2ccc(C(=O)O)cc2)NC(=O)[C@](C)(CO)NC(=O)[C@H](Cc2c[nH]c3c(Cl)cccc23)NC(=O)[C@H](Cc2ccncc2)NC(=O)[C@H](CC(N)=O)NC(=O)[C@H]2CC(F)(F)CN2C(=O)[C@H](Cc2c[nH]c3ccccc23)NC(=O)[C@@H]2CNCCN2C(=O)[C@H](Cc2ccncc2)NC1=O", "note": "[SEQ ID NO. 266] (cyclo([4Pal][Trp(7-Cl)][αMeS][Phe(4-COOH)]Y[Sar][Trp(βS-Me,7-OMe)][X1][Nle][4Pal][Pip(4-aza)]W[dPro(4,4-F2)]N))", "values": [{"measurement": "IC50", "setting": "[1]", "value": 0.9, "unit": "nM"}, {"measurement": "Kd", "setting": "[2]", "value": 0.06, "unit": "nM"}]}
{"smiles": "CCCC[C@@H]1NC(=O)[C@H]2CC[C@H](C2)NC(=O)[C@H]([C@@H](C)c2c[nH]c3c(OC)cccc23)NC(=O)CN(C)C(=O)[C@H](Cc2ccc(O)cc2)NC(=O)[C@H](Cc2ccc(C(N)=O)cc2)NC(=O)[C@](C)(CO)NC(=O)[C@H](Cc2c[nH]c3c(Cl)cccc23)NC(=O)[C@H](Cc2ccc(C(=O)O)cc2)NC(=O)[C@H](CC(N)=O)NC(=O)[C@H](CCC(=O)O)N(C)C(=O)[C@H](Cc2c[nH]c3ccccc23)NC(=O)[C@@H]2CC[C@@H](O)CN2C(=O)[C@H](Cc2ccncc2)NC1=O", "note": "[SEQ ID NO. 267] (cyclo([4Pal][Pip(5R-OH)]W[NMeE]N[Phe(4-COOH)][Trp(7-Cl)][αMeS][Phe(4-CONH2)]Y[Sar][Trp(βS-Me,7-OMe)][X13][Nle]))", "values": [{"measurement": "IC50", "setting": "[1]", "value": 1.7, "unit": "nM"}, {"measurement": "Kd", "setting": "[2]", "value": 0.14, "unit": "nM"}]}
